Patent US5219741A, “Method of making L-proline using an N-acyl-L-protine acylase” (priority 1990, dated 1993)
Entries after “also recorded” stand apart in the source; their conditions may differ. Read-outs that look alike come from different tables or passages of the source.

How the values were obtained:
N-acyl-L-proline acylase [1] = experiment: Stereospecificity of hydrolysis of N-acetyl-D,L-proline; format: biochemical, Comamonas testosteroni DSM 5416; conditions: for L-proline (mmol/l) produced: substrate 10 mmol/l, two hours at 30° C., pH 7.0
Description: The hydrolysis of N-acyl-L-proline, N-acetyl-D,L-proline and N-acetyl-D-proline was determined in the following reaction mixture:
The reaction mixture was incubated for two hours at 30° C. and the L-proline produced was determined by amino acid analysis as in Example 10.

[2] = test system: N-acyl-L-proline acylase formation in Comamonas testosteroni DSM 5416; experiment: Acylase formation: specific activity of N-acyl-L-proline acylase in crude extract; format: cell-based
Description: After 24 to 48 hours, the cell-containing nutrient medium was centrifuged (15 min., 4,500 g in a cooling centrifuge), the cells were washed twice with 0.9% (w/v) NaCl solution and resuspended in 10 ml 0.1M tris-HCl buffer, pH 7.0.
The microorganisms of this suspension were macerated by ultrasound treatment (Sonifier-Cell Disrupter B-30 of the firm Branson Sonic Power Co., Danbury, Conn., USA) (2 minutes pulsating, corresponding to 1 minute of pure ultrasonic radiation. The cell fragments and non-macerated cells were centrifuged in a cooled centrifuge 30 minutes at 40,000 g and 5° C. The clear supernatant (=crude extract) was used in an enzyme test.
The reaction was started by adding crude extract and the reaction batches customarily incubated for 10 minutes at 30° C. The incubation time and the amount of crude extract were selected so that the linearity range of the enzymatic reaction and of the subsequent proline detection were not exceeded.
(§1) The enzymatic reaction was interrupted by pipetting 50 μl of the enzyme sample into 1.25 ml 100% acetic acid. Subsequently, 0.45 ml 0.1M tris-HCl buffer pH 7.0 and 1.25 ml ninhydrin reagent (3 g ninhydrin dissolved by heating in a mixture of 60 ml 100% acetic acid and 40 ml 6M phosphoric acid) were added. The ninhydrin reagent was freshly prepared daily. The test tubes were loosely closed with screw-on caps, incubated 30 minutes at 100° C. and subsequently cooled down in an ice bath.
(§2) The L-proline, liberated by the enzymatic hydrolysis, forms a red dye with ninhydrin at 100° C. The absorption of the red dye was measured in a spectrophotometer at 480 nm relative to a control batch without crude extract (=substrate blank). The concentration of the L-proline produced was determined using a straight calibration line with L-proline in a range of 5 to 100 nmoles per 50 μl specimen. The enzyme activity was indicated in international units; thus, one unit (U) corresponded to an amount of 1 μmole L-proline produced per minute.
The protein determination was carried out with a protein-determination kit of the firm Pierce Chemical Co., Rockford, Ill., USA, according to Bradford, Anal. Biochem. 72, pp. 248-254 (1976).
(§3) The carbon source of the culture medium with a concentration of 4 g/l was varied and the influence on growth and acylase formation determined.
(§4) The concentration of N-acetyl-L-proline was varied in a range of 1 g/l-5 g/l in steps of 1 g/l in the culture medium as described in Example 1.
(§5) The concentration of (NH4)2 SO4 was varied in a range of 1 g/l-5 g/l in steps of 1 g/l in the culture medium as described in Example 1.
(§6) The concentration of yeast extract was varied in a range of 1 g/l-5 g/l in steps of 1 g/l in the culture medium as described in Example 1.
(§7) The N-acetyl-L-proline concentration was reduced to 0.2 to 1.0 g/l in the culture medium as described in Example 1 and 4 g/l Na acetate were additionally added.
(§8) The method described above under f) was followed. However, the inductor, N-acetyl-L-proline, was not added to the nutrient medium until the late exponential growth phase after an incubation time of 12 hours.
(§9) The method described above under f) was followed. In addition to N-acetyl-L-proline, various N-acetyl- and N-chloroacetyl amino acids were added to the nutrient medium in a concentration of 1 g/l.

N-acyl-L-proline acylase [3] = experiment: Substrate specificity: hydrolysis of N-acyl amino acids and proline derivatives; format: biochemical, Comamonas testosteroni DSM 5416
Description: The activity of acylase was determined with various N-acetyl-L-amino acids and N-chloroacetyl-L-amino acids in a reaction batch with the following composition:
The reaction temperature was 30° C. and the incubation time 15 minutes to 24 hours. 0.2 ml samples of the reaction batch in each instance were mixed at different times with 0.2 ml 10% (w/v) trichloroacetic acid and the denatured protein centrifuged off for 10 minutes at 11,000 rpms in a table centrifuge. The supernatant was diluted with a 0.1M Na citrate buffer pH 2.2 with 25% (v/v) 2.2-thiodiethanol and 0.1% (v/v) phenol 1:5 and 1:50 respectively. The amino acids released were quantitatively detected by an amino-acid analyzer LC 5001 of the firm Biotronic, Maintal, Federal Republic of Germany. In Table 16, the substrates marked with * and the corresponding products were quantified by means of HPLC.
The activity of the acylase was determined with various proline derivatives as under a).

[4] = test system: Comamonas testosteroni DSM 5416; experiment: Growth of the strain in culture medium (OD600); format: cell-based
Description: Strains which appeared uniform according to the colony morphology and the microscopic image were then cultivated in 100 ml liquid medium (500 ml Erlenmeyer flask with top and 4 lateral baffles) at 30° C. on a rotary agitator machine at 200 rpms. The culture medium had the following composition: […]
as §3, §4, §5, §6, §7, §8, §9

N-acyl-L-proline acylase [5] = experiment: Dependence of the acylase activity on the substrate concentration (KM); format: biochemical, Comamonas testosteroni DSM 5416; conditions: 30° C., 0.1M tris-HCl buffer, pH 7.0
Description: The reaction temperature was 30° C. and the incubation time 10 minutes. The N-acetyl-L-proline concentration of the reaction batch was varied in a range from 1 to 50 mM.

N-acyl-L-proline acylase [6] = format: biochemical, Comamonas testosteroni DSM 5416; conditions: native enzyme; for Activity (%): no agent = 100
Description: as §1, §2
The influence of various chemical agents as well as metal cations and anions on the reaction speed of the hydrolytic splitting of N-acetyl-L-proline was determined at 30° C. in a reaction batch with the following composition: […]
The enzyme was pre-incubated for 10 minutes at 30° C. with the compound before the addition of substrate to start the reaction.
The enzyme was pre-incubated for 10 minutes at 30° C. with the agent before the substrate was added to start the reaction.
The enzyme was pre-incubated 10 minutes at 30° C. with the agent before the substrate was added to start the reaction. The concentration of the anions was 10 mM in each instance.

[7] = test system: 1,10-phenanthroline-inactivated acylase (apoenzyme); experiment: Influence of cations on the 1,10-phenanthroline-inactivated acylase; format: biochemical, Comamonas testosteroni DSM 5416; conditions: for Influence on the apoenzyme (in words): 1,10-phenanthroline-inactivated acylase; for Activity (%): inactivated enzyme after gel filtration + cation 1 mM, native enzyme = 100, no agent = 21
Description: FPLC/Mono Q purified enzyme was incubated for 24 hours at 4° C. in the presence of 1 mM 1,10-phenanthroline. Subsequently, enzyme and the chelating agent 1,10-phenanthroline were separated by gel filtration via Sephadex G-25M (PD-10, firm Pharmacia/LKB, Uppsala, Sweden). The enzyme-containing fractions were combined and the activity determined without and in the presence of various cations (1 mM).

[8] = N-acetyl-L-proline 0.2 g/l + 4 g/l Na acetate, 34 hours
[9] = N-acetyl-L-proline 0.2 g/l added after 12 hours (late exponential growth phase), Na acetate medium, 24 hours further
[10] = N-acetyl-L-proline 0.4 g/l + 4 g/l Na acetate, 34 hours
[11] = N-acetyl-L-proline 0.4 g/l added after 12 hours (late exponential growth phase), Na acetate medium, 24 hours further
[12] = N-acetyl-L-proline 0.6 g/l + 4 g/l Na acetate, 34 hours
[13] = N-acetyl-L-proline 0.6 g/l added after 12 hours (late exponential growth phase), Na acetate medium, 24 hours further
[14] = N-acetyl-L-proline 0.8 g/l + 4 g/l Na acetate, 34 hours
[15] = N-acetyl-L-proline 0.8 g/l added after 12 hours (late exponential growth phase), Na acetate medium, 24 hours further
[16] = N-acetyl-L-proline 1.0 g/l + 4 g/l Na acetate, 34 hours
[17] = N-acetyl-L-proline 1.0 g/l added after 12 hours (late exponential growth phase), Na acetate medium, 24 hours further
[18] = N-acetyl-L-proline 1 g/l in culture medium, 24 hours
[19] = N-acetyl-L-proline 2 g/l in culture medium, 24 hours
[20] = N-acetyl-L-proline 3 g/l in culture medium, 24 hours
[21] = N-acetyl-L-proline 4 g/l in culture medium, 24 hours
[22] = N-acetyl-L-proline 5 g/l in culture medium, 24 hours
[23] = carbon source 4 g/l in culture medium
[24] = inductor 1 g/l + 4 g/l Na acetate, 24 hours

SMILES: CC(=O)N1CCCC1C(=O)O (racemic) [N-acetyl-D,L-proline]
- L-proline (mmol/l) produced (N-acyl-L-proline acylase [1]): 4.82 mmol/L

SMILES: CC(=O)N1CCC[C@H]1C(=O)O [N-acetyl-L-proline]
- Acylase formation / induction (in words) [2]: only formed; also recorded: induced acylase formation
- Optimum concentration in the culture medium for acylase formation [2]: 4 g/L
- Spec. activity (U/mg) [2, 8]: 0.53 U/mg
- Spec. activity (U/mg) [2, 9]: 0.50 U/mg
- Spec. activity (U/mg) [2, 10]: 0.79 U/mg
- Spec. activity (U/mg) [2, 11]: 0.63 U/mg
- Spec. activity (U/mg) [2, 12]: 1.41 U/mg
- Spec. activity (U/mg) [2, 13]: 0.96 U/mg
- Spec. activity (U/mg) [2, 14]: 1.70 U/mg
- Spec. activity (U/mg) [2, 15]: 0.67 U/mg
- Spec. activity (U/mg) [2, 16]: 1.55 U/mg
- Spec. activity (U/mg) [2, 17]: 1.08 U/mg
- Spec. activity (U/mg) [2, 18]: 1.33 U/mg
- Spec. activity (U/mg) [2, 19]: 1.36 U/mg
- Spec. activity (U/mg) [2, 20]: 1.77 U/mg
- Spec. activity (U/mg) [2, 21]: 1.84 U/mg
- Spec. activity (U/mg) [2, 22]: 0.94 U/mg
- Spec. activity (U/mg) [2, 23]: 2.26 U/mg
- Spec. activity (U/mg) [2, 24]: 1.34 U/mg
- Hydrolysis by the acylase (in words) (N-acyl-L-proline acylase [3]): hydrolyzed especially well
- Rel. activity (%) (N-acyl-L-proline acylase [3]; 20 mM substrate 1.0 ml in 2.0 ml batch, 30° C., pH 7.0, N-acetyl-L-proline = 100%, amino-acid analyzer): 100%
- Hydrolysis by the acylase (in words) (N-acyl-L-proline acylase [3]; listed as N-acetyl-L proline): hydrolyzes
- Relative Activity (%) (N-acyl-L-proline acylase [3]; proline derivatives, 30° C., pH 7.0, N-acetyl-L-proline = 100%): 100%
- Stereospecific hydrolysis (in words) (N-acyl-L-proline acylase [1]): hydrolyzes
- L-proline (mmol/l) produced (N-acyl-L-proline acylase [1]): 10.25 mmol/L
- Growth (OD600) [4, 8]: 2.27 OD600
- Growth (OD600) [4, 9]: 2.22 OD600
- Growth (OD600) [4, 10]: 2.90 OD600
- Growth (OD600) [4, 11]: 2.28 OD600
- Growth (OD600) [4, 12]: 2.75 OD600
- Growth (OD600) [4, 13]: 2.76 OD600
- Growth (OD600) [4, 14]: 3.04 OD600
- Growth (OD600) [4, 15]: 2.95 OD600
- Growth (OD600) [4, 16]: 3.12 OD600
- Growth (OD600) [4, 17]: 2.88 OD600
- Growth (OD600) [4, 18]: 1.95 OD600
- Growth (OD600) [4, 19]: 3.16 OD600
- Growth (OD600) [4, 20]: 4.32 OD600
- Growth (OD600) [4, 21]: 5.42 OD600
- Growth (OD600) [4, 22]: 5.68 OD600
- Growth (OD600) [4, 23]: 6.0 OD600
- Growth (OD600) [4, 24]: 3.46 OD600
- Km (N-acyl-L-proline acylase [5]): 5 mM

SMILES: O=S(=O)([O-])[O-].[Cu+2] [CuSO4]
- Activity (%) (N-acyl-L-proline acylase [6]; metal cation salt 1 mM): 61%
- Activity (%) (N-acyl-L-proline acylase [6]; metal cation salt 10 mM): 19%
- Influence on the acylase activity (in words) (N-acyl-L-proline acylase [6]): inhibiting action
- Influence on the apoenzyme (in words) [7]: inhibited
- Activity (%) [7]: 6%

SMILES: [Cl][Cd][Cl] [CdCl2]
- Activity (%) (N-acyl-L-proline acylase [6]; metal cation salt 1 mM): 89%
- Activity (%) (N-acyl-L-proline acylase [6]; metal cation salt 10 mM): 65%
- Influence on the acylase activity (in words) (N-acyl-L-proline acylase [6]): inhibiting action
- Activity (%) [7]: 20%

SMILES: [Ca+2].[Cl-].[Cl-] [CaCl2]
- Activity (%) (N-acyl-L-proline acylase [6]; metal cation salt 1 mM): 100%
- Activity (%) (N-acyl-L-proline acylase [6]; metal cation salt 10 mM): 91%
- Activity (%) [7]: 17%

SMILES: [Cl][Sn][Cl] [SnCl2]
- Activity (%) (N-acyl-L-proline acylase [6]; metal cation salt 1 mM): 72%
- Activity (%) (N-acyl-L-proline acylase [6]; metal cation salt 10 mM): 55%
- Influence on the acylase activity (in words) (N-acyl-L-proline acylase [6]): inhibiting action
- Influence on the apoenzyme (in words) [7]: inhibited
- Activity (%) [7]: 10%

SMILES: O=[N+]([O-])[O-].O=[N+]([O-])[O-].[Ni+2] [Ni(NO3)2]
- Activity (%) (N-acyl-L-proline acylase [6]; metal cation salt 1 mM): 94%
- Activity (%) (N-acyl-L-proline acylase [6]; metal cation salt 10 mM): 75%
- Activity (%) [7]: 21%
